Legend:
gastric acid secretion [1] = details: given orally to rats, at any dose; cited from earlier work
gastrointestinal mucosa = details: in vivo; cited from earlier work
submucosal lesions = assay: Cytoprotection: inhibition of submucosal gastric lesions induced by oral 50 percent ethanol; format: in vivo, Male Charles River rats; details: for Percent Inhibition of Submucosal Lesions, Oral: 2 percent aqueous ethanol vehicle; for Percent Inhibition of Submucosal Lesions, Topical: topical to shaved skin, 25 percent ethanolic water; for cytoprotection when applied topically (in words): topical, at the same unit dose as effective orally
Procedure: Male Charles River rats weighing about 200 g each were fasted overnight, but were allowed water ad libitum. Rats used for the topical administration of this invention were shaved on their dorsal sides one day prior to being used as host mammals.
Compositions containing the active ingredient were prepared for oral administration by dissolving a prostaglandin in a 2 percent aqueous ethanolic solution that was administered in a dose volume of 0.2 milliliters per kilogram (ml/kg) of body weight at the unit dosages shown in Table 1 hereinafter. […] A fixed concentration for each dose was applied to the skin in a volume of 0.2 ml per rat.
Gastric lesions were induced by oral administration of 1.0 ml of a 50 percent ethanolic water solution that was administered one hour after administration of each of the active ingredients. The rats were sacrificed by asphyxiation one hour after gastric lesion induction using carbon dioxide. The rat stomachs were then removed, inflated with water, opened along the greater curvature, and were laid out on a flat surface. The presence of mucosal bleeding was noted, the mucosal layers were wiped, and the presence or absence of hemorrhagic sites was recorded.
The incidences of lesions compared to controls were statistically analyzed by either the method of Chi-square using Yate's correction or Fisher's Exact Probability Test.

gastric acid secretion [2] = details: laboratory animals and man; cited from earlier work
gastric acid secretion [3] = assay: Inhibition of gastric acid secretion (pylorus ligation); format: in vivo, Male Charles River CD rats; details: for Percent Inhibition of Acid, Intraduodenal / Percent Inhibition of Acid, Topical: 4 h after pylorus ligation; for Percent Inhibition of Acid, Intraduodenal: 2 percent ethanolic water; for Percent Inhibition of Acid, Topical: topical to shaved skin, 25 percent ethanolic water
Procedure: Male Charles River CD rats weighing about 180 g each were shaved on their dorsal sides and derpived of food for a time period of 18 hours prior to use. Water was permitted ad libitim during that time, but was removed during the times at which the rats were studied as host mammals.
Compositions containing the active ingredient were administered intraduodenally at 1 ml/kg or were applied to directly contact the shaved skin at 0.2 ml/animal at the time the pylorus of each animal was ligated.
The animals were sacrificed by asphyxiation four hours after pylorus ligation using carbon dioxide. The gastric contents were collected in graduated centrifuge tubes that were centrifuged. The centrifugally separated supernatents were then analyzed for volume and acidity. Acid concentration (secretion) was determined by electrometric titration of a 1 ml aliquot of the recovered gastric juice against 0.1N NaOH to a pH value of 7.4.
Treated groups were compared to the control and statistical differences were declared by the method of least significant differences.
(treatment-control)/control×100%

[4] = tested on: indomethacin-induced gastric lesions; details: oral administration; cited from earlier work
[5] = 25 μg/kg, lesions by 50 percent ethanol 1 h after agent
[6] = 25 μg/kg (estimate based on 200 g rat)
[7] = 5 μg/kg (estimate based on 200 g rat)

CCCCC(C)(C)[C@H](O)/C=C/[C@H]1C=CC(=O)[C@@H]1C/C=C\CCCC(=O)O [16,16-dimethyl PGA2]
antisecretory activity (gastric acid secretion [1]): not antisecretory at any dose when given orally to rats | cytoprotective activity (gastrointestinal mucosa): cytoprotective

CN/C(=N/CCSCc1nc[nH]c1C)NC#N [cimetidine]
cytoprotective activity (gastrointestinal mucosa): not cytoprotective in the models employed

CCCCC[C@H](O)/C=C/[C@H]1[C@H](O)CC(=O)[C@@H]1C/C=C\CCCC(=O)O [PGE2, 9-oxo-11α,15-dihydroxy-5-cis,13-transprostadienoic acid]
Percent Inhibition of Submucosal Lesions, Oral (submucosal lesions; [5]): 40% | Percent Inhibition of Submucosal Lesions, Topical (submucosal lesions; [6]): 20% | cytoprotection when applied topically (in words) (submucosal lesions): ineffective at providing cytoprotection when applied topically | gastric antisecretory activity (gastric acid secretion [2]): have gastric antisecretory activity in both laboratory animals and man

COC(=O)CCC=C=CC[C@H]1C(=O)C[C@@H](O)[C@@H]1/C=C/C(O)COc1ccccc1 (relative stereo) [Enprostil, 7-[3-hydroxy-2-(3-hydroxy-4-phenoxy-1-butenyl)-5-oxocyclopentyl]-4,5-heptad ienoic acid methyl ester]
Percent Inhibition of Submucosal Lesions, Oral (submucosal lesions; 5 μg/kg): 100% | Percent Inhibition of Submucosal Lesions, Topical (submucosal lesions; [7]): 100% | cytoprotection when applied topically (in words) (submucosal lesions): effective at the same oral dose when applied externally | Percent Inhibition of Acid, Intraduodenal (gastric acid secretion [3]; 1.0 mg/kg): 71% | Percent Inhibition of Acid, Topical (gastric acid secretion [3]; 1.0 mg/kg): 32%

CCCCC(C)(O)C/C=C/[C@H]1[C@H](O)CC(=O)[C@@H]1CCCCCCCO (stereo partly drawn) [Rioprostil, (11α,13E)-1,11,16-trihydroxy-16-methyl-prost-13-en-9-one]
Percent Inhibition of Submucosal Lesions, Oral (submucosal lesions; [5]): 87% | Percent Inhibition of Submucosal Lesions, Topical (submucosal lesions; [6]): 75% | cytoprotection when applied topically (in words) (submucosal lesions): effective at the same oral dose when applied externally | Percent Inhibition of Acid, Intraduodenal (gastric acid secretion [3]; 8.0 mg/kg): 35% | Percent Inhibition of Acid, Topical (gastric acid secretion [3]; 8.0 mg/kg): 37%

CCCCC[C@H](O)/C=C/[C@H]1[C@H](O)CC(=O)[C@@H]1CCCCCCC(=O)O [PGE1, 9-oxo-11 alpha,15-dihydroxy-13-trans-prostenoic acid]
Percent Inhibition of Submucosal Lesions, Oral (submucosal lesions; [5]): 60% | Percent Inhibition of Submucosal Lesions, Topical (submucosal lesions; [6]): 10% | cytoprotection when applied topically (in words) (submucosal lesions): ineffective at providing cytoprotection when applied topically | gastric antisecretory activity (gastric acid secretion [2]): have gastric antisecretory activity in both laboratory animals and man

CCCCC[C@H](O)/C=C/[C@H]1C=CC(=O)[C@@H]1CCCCCCC(=O)O [PGA1]
protection from indomethacin-induced gastric lesions [4]: does not protect rats from indomethacin-induced gastric lesions

CCCCC(C)(C)[C@H](O)/C=C/[C@H]1[C@H](O)CC(=O)[C@@H]1C/C=C\CCCC(=O)O [dmPGE2, (5Z,11α,13E,15R)-11,15-dihydroxy-16,16-dimethyl-9-oxo-prosta-5,13-1-o ic acid acid]
Percent Inhibition of Submucosal Lesions, Oral (submucosal lesions; 5 μg/kg): 100% | Percent Inhibition of Submucosal Lesions, Topical (submucosal lesions; [7]): 100% | cytoprotection when applied topically (in words) (submucosal lesions): effective at the same oral dose when applied externally | Percent Inhibition of Acid, Intraduodenal (gastric acid secretion [3]; 1.0 mg/kg): 29% | Percent Inhibition of Acid, Topical (gastric acid secretion [3]; 1.0 mg/kg): 26%

CCCCC[C@@](C)(O)/C=C/[C@@H]1[C@@H](C/C=C\CCCC(=O)O)[C@H](O)C[C@H]1O [15(R)-15 methyl PGF2β]
antisecretory activity (gastric acid secretion [1]): not antisecretory at any dose when given orally to rats | cytoprotective activity (gastrointestinal mucosa): cytoprotective

CCCCC(C)(O)C/C=C/[C@H]1[C@H](O)CC(=O)[C@@H]1CCCCCCC(=O)OC (mixture of isomers) [Misoprostol, (±)(11α,13E)-11,16-dihydroxy-16-methyl-9-oxo-prost-13-en-1-oic acid methyl ester]
Percent Inhibition of Submucosal Lesions, Oral (submucosal lesions; 100 μg/kg): 87% | Percent Inhibition of Submucosal Lesions, Topical (submucosal lesions; 100 μg/kg (estimate based on 200 g rat)): 75% | cytoprotection when applied topically (in words) (submucosal lesions): effective at the same oral dose when applied externally | Percent Inhibition of Acid, Intraduodenal (gastric acid secretion [3]; 8.0 mg/kg): 38% | Percent Inhibition of Acid, Topical (gastric acid secretion [3]; 8.0 mg/kg): 43%

CCCCC(C)(C)C(O)/C=C/[C@H]1[C@H](C)CC(=O)[C@@H]1C/C=C\CCCC(=O)O (relative stereo) [Trimoprostil, (±)9-oxo-11α-methyl-15-hydroxy-16,16-dimethyl-5-cis,13-trans-prost adienoic acid]
Percent Inhibition of Acid, Intraduodenal (gastric acid secretion [3]; 8.0 mg/kg): 38% | Percent Inhibition of Acid, Topical (gastric acid secretion [3]; 8.0 mg/kg): 9% | inhibition of gastric acid when applied topically (in words) (gastric acid secretion [3]; topical, at the unit dosage effective intraduodenally): ineffective at significantly inhibiting production of gastric acid, when applied topically

C[N+]1(C)[C@@H]2C[C@@H](OC(=O)[C@H](CO)c3ccccc3)C[C@H]1[C@@H]1O[C@@H]12 (stereo in doubt) [methscopolamine bromide]
cytoprotective activity (gastrointestinal mucosa): not cytoprotective in the models employed

CCCCC[C@H](O)/C=C/[C@H]1C(=O)C[C@H](O)[C@@H]1C/C=C\CCCC(=O)O [PGD2]
protection from indomethacin-induced gastric lesions [4]: does not protect rats from indomethacin-induced gastric lesions
